In PMC6421522, “Designing Dual Inhibitors of Anaplastic Lymphoma Kinase (ALK) and Bromodomain-4 (BRD4) by Tuning Kinase Selectivity” (Journal of Medicinal Chemistry, 2019):

Legend:
ALK WT = ALK WT (Homo sapiens, UniProt Q9UM73); assay: Biochemical ALK WT IC50; format: binding; settings: geometric mean
HeLa cells = assay: Mitotic arrest and mitotic markers in HeLa cells (Western blot); format: cell-based
Experimental: Protein extracts of cells were prepared by lysis in radioimmunoprecipitation assay buffer (Sigma) supplemented with protease inhibitors (complete protease inhibitor cocktail, Roche). Protein extracts (25 μg) were separated by sodium dodecyl sulfate-polyacrylamide gel electrophoresis and transferred onto poly(vinylidene difluoride) membranes using the Trans-Blot Turbo transfer system (BioRad). After blocking with 5% bovine serum albumin in PBS with 0.1% Tween-20 for 30 min, the membrane was incubated with primary antibodies for 1 h at room temperature. Horseradish peroxidase-linked secondary antibodies were incubated 30 min at room temperature followed by enhanced chemiluminescence (ECL) detection (ECL Western blot substrate, Pierce).
Primary antibodies were obtained from the following sources: PLK-1 (05-844) and phosphohistone H3 (Ser10) (05806) from Millipore; pPlk1-T210 (5472) from Cell Signaling; pPlk1-S137 (21738) from Abcam; and cyclin B1 (GNS1) and β-actin (A2228) from Sigma-Aldrich served as loading control.

AKT2 = biological target: T1, AKT2 (Homo sapiens, UniProt P31751); assay: KINOMEscan scanEDGE; format: binding; settings: read-out: % Control (1µM)
T1 construct: purchased DiscoveRx KINOMEscan (scanEDGE); Thermo Fisher SelectScreen (Z'-LYTE) for PLK-1
T1 sequence (P31751 whole entry): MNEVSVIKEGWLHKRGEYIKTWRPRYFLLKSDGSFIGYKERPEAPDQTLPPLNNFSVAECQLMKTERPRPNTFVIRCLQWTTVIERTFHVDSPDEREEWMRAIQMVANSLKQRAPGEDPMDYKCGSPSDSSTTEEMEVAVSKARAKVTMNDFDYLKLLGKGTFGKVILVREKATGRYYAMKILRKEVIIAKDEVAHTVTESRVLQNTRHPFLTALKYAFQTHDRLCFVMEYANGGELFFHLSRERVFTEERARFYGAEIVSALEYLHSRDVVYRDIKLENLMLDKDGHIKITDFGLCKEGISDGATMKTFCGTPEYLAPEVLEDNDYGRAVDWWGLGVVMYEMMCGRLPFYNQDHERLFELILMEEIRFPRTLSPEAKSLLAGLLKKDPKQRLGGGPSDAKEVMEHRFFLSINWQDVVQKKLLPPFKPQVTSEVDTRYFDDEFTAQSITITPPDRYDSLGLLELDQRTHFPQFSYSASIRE
Experimental: (§1) Compound X was assayed at 1 μM in the DiscoveRx KINOMEscan (scanEDGE) assay platform. The results for single-concentration binding interactions are reported as “%Ctrl” (DMSO = 100%Ctrl), where lower numbers indicate stronger hits.

BTK = biological target: T2, BTK (Homo sapiens, UniProt Q06187); assay: KINOMEscan scanEDGE; format: binding; settings: read-out: % Control (1µM)
T2 construct: purchased DiscoveRx KINOMEscan (scanEDGE); Thermo Fisher SelectScreen (Z'-LYTE) for PLK-1
T2 sequence (Q06187 whole entry): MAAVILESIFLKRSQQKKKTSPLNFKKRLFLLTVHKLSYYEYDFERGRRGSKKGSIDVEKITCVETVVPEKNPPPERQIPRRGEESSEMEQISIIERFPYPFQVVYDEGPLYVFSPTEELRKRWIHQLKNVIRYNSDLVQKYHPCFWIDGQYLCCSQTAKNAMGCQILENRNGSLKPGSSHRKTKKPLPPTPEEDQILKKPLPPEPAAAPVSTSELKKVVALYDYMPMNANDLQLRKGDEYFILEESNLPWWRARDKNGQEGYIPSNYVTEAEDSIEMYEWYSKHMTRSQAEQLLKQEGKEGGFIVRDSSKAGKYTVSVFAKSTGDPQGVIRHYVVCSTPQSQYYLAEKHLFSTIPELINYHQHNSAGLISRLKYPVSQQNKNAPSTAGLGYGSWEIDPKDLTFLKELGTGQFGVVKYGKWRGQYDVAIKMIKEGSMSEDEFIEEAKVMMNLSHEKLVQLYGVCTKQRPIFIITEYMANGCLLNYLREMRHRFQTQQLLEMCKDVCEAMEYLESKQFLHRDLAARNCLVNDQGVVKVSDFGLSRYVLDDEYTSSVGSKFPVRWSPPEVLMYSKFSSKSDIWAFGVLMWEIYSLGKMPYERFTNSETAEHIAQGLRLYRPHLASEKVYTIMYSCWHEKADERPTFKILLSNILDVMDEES
Experimental: as §1

AURKA = biological target: T3, AURKA (Homo sapiens, UniProt O14965); assay: KINOMEscan scanEDGE; format: binding; settings: read-out: % Control (1µM)
T3 construct: purchased DiscoveRx KINOMEscan (scanEDGE); Thermo Fisher SelectScreen (Z'-LYTE) for PLK-1
Experimental: as §1

SMARCA2B = biological target: T4, SMARCA2B (Homo sapiens, UniProt P51531); assay: Bromodomain thermal shift screening (DSF); format: binding; settings: Group VIII
T4 construct: Bromodomain thermal shift screening data for 16k
T4 sequence (P51531 1373-1493 isoform P51531-2 limits assumed): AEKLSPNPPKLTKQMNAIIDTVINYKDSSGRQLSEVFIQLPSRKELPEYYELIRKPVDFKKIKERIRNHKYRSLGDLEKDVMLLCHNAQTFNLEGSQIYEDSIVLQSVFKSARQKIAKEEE
Experimental: (§2) BRD4 thermal shift was measured in a differential scanning fluorimetry (DSF) assay. The assay was performed on a Stratagene Mx3005P system quantitative polymerase chain reaction (qPCR). The assay was performed in 96-well plates with 20 μL of protein at 2 μM in DSF-assay buffer (10 mM HEPES pH 7.5, 500 mM NaCl) to which 4 μL of Sypro orange dye and 0.4 μL of 10 μM compound in DMSO was added. The plate was sealed and centrifuged (1 min, 1000 rpm), and the qPCR machine was used to detect SYPRO fluorescence while increasing the temperature from 25 to 95 °C in 71 cycles. The sigmoidal part of the fluorescence signal was fitted using the Boltzmann equation, the points of change were defined, and the thermal shift was calculated by subtracting the protein/DMSO Tm shift from the protein/compound Tm shift.

BRD3(2) = biological target: T5, BRD3(2) (Homo sapiens, UniProt Q15059); assay: Bromodomain thermal shift screening (DSF); format: binding; settings: Group II (BET)
T5 construct: BRD3(2)
Experimental: as §2

TAF1A(1) = biological target: T6, TAF1A(1) (Homo sapiens, UniProt P21675); assay: Bromodomain thermal shift screening (DSF); format: binding; settings: Group VII
T6 construct: Bromodomain thermal shift screening data for 16k
T6 sequence (P21675 1397-1505 limits assumed): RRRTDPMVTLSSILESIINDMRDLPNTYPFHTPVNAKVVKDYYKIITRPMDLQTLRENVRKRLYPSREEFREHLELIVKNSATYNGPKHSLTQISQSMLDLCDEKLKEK
Experimental: as §2

EP300 = biological target: T7, EP300 (Homo sapiens, UniProt Q09472); assay: Bromodomain thermal shift screening (DSF); format: binding; settings: Group III
T7 construct: Bromodomain thermal shift screening data for 16k
T7 sequence (Q09472 1049-1156 limits assumed): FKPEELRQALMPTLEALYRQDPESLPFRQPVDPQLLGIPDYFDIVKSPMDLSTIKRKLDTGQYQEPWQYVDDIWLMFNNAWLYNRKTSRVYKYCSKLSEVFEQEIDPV
Experimental: as §2

TAF1LA(2) = biological target: T8, TAF1LA(2) (Homo sapiens, UniProt Q8IZX4); assay: Bromodomain thermal shift screening (DSF); format: binding; settings: Group VII
T8 construct: Bromodomain thermal shift screening data for 16k
T8 sequence (Q8IZX4 1517-1626 limits assumed): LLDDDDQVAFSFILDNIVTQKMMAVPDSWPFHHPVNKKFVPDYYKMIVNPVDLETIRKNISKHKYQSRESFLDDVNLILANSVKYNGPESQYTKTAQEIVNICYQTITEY
Experimental: as §2

BRD2(1) = biological target: T9, BRD2(1) (Homo sapiens, UniProt P25440); assay: Bromodomain thermal shift screening (DSF); format: binding; settings: Group II (BET)
T9 construct: BRD2(1)
Experimental: as §2

SMARCA4A = biological target: T10, SMARCA4A (Homo sapiens, UniProt P51532); assay: Bromodomain thermal shift screening (DSF); format: binding; settings: Group VIII
T10 construct: Bromodomain thermal shift screening data for 16k
T10 sequence (P51532 1453-1564 limits assumed): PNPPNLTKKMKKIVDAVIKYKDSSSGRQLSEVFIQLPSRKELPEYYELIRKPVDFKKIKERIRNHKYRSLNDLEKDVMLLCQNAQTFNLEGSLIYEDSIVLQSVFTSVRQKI
Experimental: as §2

BRPF1A = biological target: T11, BRPF1A (Homo sapiens, UniProt P55201); assay: Bromodomain thermal shift screening (DSF); format: binding; settings: Group IV
T11 construct: Bromodomain thermal shift screening data for 16k
Experimental: as §2

TRIM33B = assay: Bromodomain thermal shift screening (DSF); format: binding; settings: Group V
Experimental: as §2

PB1A(3) = biological target: T12, PB1A(3) (Homo sapiens, UniProt Q86U86); assay: Bromodomain thermal shift screening (DSF); format: binding; settings: Group VIII
T12 construct: Bromodomain thermal shift screening data for 16k
Experimental: as §2

PCAF = biological target: T13, PCAF (Homo sapiens, UniProt Q92831); assay: Bromodomain thermal shift screening (DSF); format: binding; settings: Group I
T13 construct: Bromodomain thermal shift screening data for 16k
Experimental: as §2

SMARCA2A = biological target: T14, SMARCA2A (Homo sapiens, UniProt P51531); assay: Bromodomain thermal shift screening (DSF); format: binding; settings: Group VIII
T14 construct: Bromodomain thermal shift screening data for 16k
Experimental: as §2

BRD4(2) = biological target: T15, BRD4(2) (Homo sapiens, UniProt O60885); assay: Bromodomain thermal shift screening (DSF); format: binding; settings: Group II (BET)
T15 construct: BRD4(2)
Experimental: as §2

BRDT(2) = biological target: T16, BRDT(2) (Homo sapiens, UniProt Q58F21); assay: Bromodomain thermal shift screening (DSF); format: binding; settings: Group II (BET)
T16 construct: Bromodomain thermal shift screening data for 16k
Experimental: as §2

WDR9 = assay: Bromodomain thermal shift screening (DSF); format: binding; settings: Group VII
Experimental: as §2

BRD2(2) = biological target: T17, BRD2(2) (Homo sapiens, UniProt P25440); assay: Bromodomain thermal shift screening (DSF); format: binding; settings: Group II (BET)
T17 construct: BRD2(2)
T17 sequence (P25440 344-453 limits assumed, species assumed): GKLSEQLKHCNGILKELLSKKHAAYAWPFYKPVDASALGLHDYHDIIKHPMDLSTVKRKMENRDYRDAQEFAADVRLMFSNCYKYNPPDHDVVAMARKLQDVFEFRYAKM
Experimental: as §2

PB1A(6) = biological target: T18, PB1A(6) (Homo sapiens, UniProt Q86U86); assay: Bromodomain thermal shift screening (DSF); format: binding; settings: Group VIII
T18 construct: Bromodomain thermal shift screening data for 16k
Experimental: as §2

BRD3(1) = biological target: T19, BRD3(1) (Homo sapiens, UniProt Q15059); assay: Bromodomain thermal shift screening (DSF); format: binding; settings: Group II (BET)
T19 construct: BRD3(1)
Experimental: as §2

PB1A(4) = biological target: T20, PB1A(4) (Homo sapiens, UniProt Q86U86); assay: Bromodomain thermal shift screening (DSF); format: binding; settings: Group VIII
T20 construct: Bromodomain thermal shift screening data for 16k
T20 sequence (Q86U86 518-625 limits assumed): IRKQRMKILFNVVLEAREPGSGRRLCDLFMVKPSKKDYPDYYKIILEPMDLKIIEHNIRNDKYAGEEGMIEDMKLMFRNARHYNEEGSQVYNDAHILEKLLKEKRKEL
Experimental: as §2

BRD1 = biological target: T21, BRD1 (Homo sapiens, UniProt O95696); assay: Bromodomain thermal shift screening (DSF); format: binding; settings: Group IV
T21 construct: Bromodomain thermal shift screening data for 16k
T21 sequence (O95696 562-666 limits assumed): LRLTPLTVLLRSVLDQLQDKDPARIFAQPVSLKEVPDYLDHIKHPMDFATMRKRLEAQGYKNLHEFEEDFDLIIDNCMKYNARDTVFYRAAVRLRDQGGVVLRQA
Experimental: as §2

PB1A(1) = biological target: T22, PB1A(1) (Homo sapiens, UniProt Q86U86); assay: Bromodomain thermal shift screening (DSF); format: binding; settings: Group VIII
T22 construct: Bromodomain thermal shift screening data for 16k
T22 sequence (Q86U86 41-151 limits assumed): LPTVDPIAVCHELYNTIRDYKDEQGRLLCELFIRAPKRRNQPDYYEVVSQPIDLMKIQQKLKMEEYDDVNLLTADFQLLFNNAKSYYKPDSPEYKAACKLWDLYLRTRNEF
Experimental: as §2

PB1A(5) = biological target: T23, PB1A(5) (Homo sapiens, UniProt Q86U86); assay: Bromodomain thermal shift screening (DSF); format: binding; settings: Group VIII
T23 construct: Bromodomain thermal shift screening data for 16k
T23 sequence (Q86U86 653-763 limits assumed): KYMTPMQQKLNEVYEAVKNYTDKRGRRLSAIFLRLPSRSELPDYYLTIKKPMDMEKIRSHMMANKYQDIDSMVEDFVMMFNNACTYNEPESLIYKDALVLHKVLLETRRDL
Experimental: as §2

TAF1LA(1) = biological target: T24, TAF1LA(1) (Homo sapiens, UniProt Q8IZX4); assay: Bromodomain thermal shift screening (DSF); format: binding; settings: Group VII
T24 construct: Bromodomain thermal shift screening data for 16k
T24 sequence (Q8IZX4 1395-1503 limits assumed): as the sequence (P21675 1397-1505 limits assumed) above, with Y28H, R62C counted along it
Experimental: as §2

SP100 = biological target: T25, SP100 (Homo sapiens, UniProt P23497); assay: Bromodomain thermal shift screening (DSF); format: binding; settings: Group V
T25 construct: Bromodomain thermal shift screening data for 16k
T25 sequence (P23497 1-885 isoform P23497-4): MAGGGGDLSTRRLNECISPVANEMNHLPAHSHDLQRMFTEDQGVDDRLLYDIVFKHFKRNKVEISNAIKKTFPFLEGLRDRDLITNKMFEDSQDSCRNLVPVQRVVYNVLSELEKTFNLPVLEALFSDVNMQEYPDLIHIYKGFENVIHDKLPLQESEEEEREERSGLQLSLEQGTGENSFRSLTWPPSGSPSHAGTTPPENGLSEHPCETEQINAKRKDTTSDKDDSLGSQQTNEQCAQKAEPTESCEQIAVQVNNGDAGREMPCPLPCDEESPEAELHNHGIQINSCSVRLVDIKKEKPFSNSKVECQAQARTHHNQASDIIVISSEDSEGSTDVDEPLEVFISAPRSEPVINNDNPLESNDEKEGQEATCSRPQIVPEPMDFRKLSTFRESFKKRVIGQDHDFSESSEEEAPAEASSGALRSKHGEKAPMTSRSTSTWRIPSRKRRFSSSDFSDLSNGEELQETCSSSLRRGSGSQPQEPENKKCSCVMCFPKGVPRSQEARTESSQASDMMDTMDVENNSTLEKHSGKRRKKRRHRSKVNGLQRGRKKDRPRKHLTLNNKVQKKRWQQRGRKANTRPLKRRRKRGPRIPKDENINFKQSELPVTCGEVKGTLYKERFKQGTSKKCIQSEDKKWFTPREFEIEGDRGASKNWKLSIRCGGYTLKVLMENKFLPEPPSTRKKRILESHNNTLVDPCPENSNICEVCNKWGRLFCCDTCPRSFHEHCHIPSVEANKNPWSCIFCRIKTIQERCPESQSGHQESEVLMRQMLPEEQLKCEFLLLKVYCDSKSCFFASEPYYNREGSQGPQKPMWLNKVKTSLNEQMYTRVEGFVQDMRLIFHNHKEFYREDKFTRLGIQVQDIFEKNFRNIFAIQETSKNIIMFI
Experimental: as §2

TAF1A(2) = biological target: T26, TAF1A(2) (Homo sapiens, UniProt P21675); assay: Bromodomain thermal shift screening (DSF); format: binding; settings: Group VII
T26 construct: Bromodomain thermal shift screening data for 16k
T26 sequence (P21675 1519-1628 limits assumed): as the sequence (Q8IZX4 1517-1626 limits assumed) above, with M46V, V51M, I102V, I107L counted along it
Experimental: as §2

BRDT(1) = biological target: T27, BRDT(1) (Homo sapiens, UniProt Q58F21); assay: Bromodomain thermal shift screening (DSF); format: binding; settings: Group II (BET)
T27 construct: Bromodomain thermal shift screening data for 16k
Experimental: as §2

ALK WT, sequence (Q9UM73 19-1620): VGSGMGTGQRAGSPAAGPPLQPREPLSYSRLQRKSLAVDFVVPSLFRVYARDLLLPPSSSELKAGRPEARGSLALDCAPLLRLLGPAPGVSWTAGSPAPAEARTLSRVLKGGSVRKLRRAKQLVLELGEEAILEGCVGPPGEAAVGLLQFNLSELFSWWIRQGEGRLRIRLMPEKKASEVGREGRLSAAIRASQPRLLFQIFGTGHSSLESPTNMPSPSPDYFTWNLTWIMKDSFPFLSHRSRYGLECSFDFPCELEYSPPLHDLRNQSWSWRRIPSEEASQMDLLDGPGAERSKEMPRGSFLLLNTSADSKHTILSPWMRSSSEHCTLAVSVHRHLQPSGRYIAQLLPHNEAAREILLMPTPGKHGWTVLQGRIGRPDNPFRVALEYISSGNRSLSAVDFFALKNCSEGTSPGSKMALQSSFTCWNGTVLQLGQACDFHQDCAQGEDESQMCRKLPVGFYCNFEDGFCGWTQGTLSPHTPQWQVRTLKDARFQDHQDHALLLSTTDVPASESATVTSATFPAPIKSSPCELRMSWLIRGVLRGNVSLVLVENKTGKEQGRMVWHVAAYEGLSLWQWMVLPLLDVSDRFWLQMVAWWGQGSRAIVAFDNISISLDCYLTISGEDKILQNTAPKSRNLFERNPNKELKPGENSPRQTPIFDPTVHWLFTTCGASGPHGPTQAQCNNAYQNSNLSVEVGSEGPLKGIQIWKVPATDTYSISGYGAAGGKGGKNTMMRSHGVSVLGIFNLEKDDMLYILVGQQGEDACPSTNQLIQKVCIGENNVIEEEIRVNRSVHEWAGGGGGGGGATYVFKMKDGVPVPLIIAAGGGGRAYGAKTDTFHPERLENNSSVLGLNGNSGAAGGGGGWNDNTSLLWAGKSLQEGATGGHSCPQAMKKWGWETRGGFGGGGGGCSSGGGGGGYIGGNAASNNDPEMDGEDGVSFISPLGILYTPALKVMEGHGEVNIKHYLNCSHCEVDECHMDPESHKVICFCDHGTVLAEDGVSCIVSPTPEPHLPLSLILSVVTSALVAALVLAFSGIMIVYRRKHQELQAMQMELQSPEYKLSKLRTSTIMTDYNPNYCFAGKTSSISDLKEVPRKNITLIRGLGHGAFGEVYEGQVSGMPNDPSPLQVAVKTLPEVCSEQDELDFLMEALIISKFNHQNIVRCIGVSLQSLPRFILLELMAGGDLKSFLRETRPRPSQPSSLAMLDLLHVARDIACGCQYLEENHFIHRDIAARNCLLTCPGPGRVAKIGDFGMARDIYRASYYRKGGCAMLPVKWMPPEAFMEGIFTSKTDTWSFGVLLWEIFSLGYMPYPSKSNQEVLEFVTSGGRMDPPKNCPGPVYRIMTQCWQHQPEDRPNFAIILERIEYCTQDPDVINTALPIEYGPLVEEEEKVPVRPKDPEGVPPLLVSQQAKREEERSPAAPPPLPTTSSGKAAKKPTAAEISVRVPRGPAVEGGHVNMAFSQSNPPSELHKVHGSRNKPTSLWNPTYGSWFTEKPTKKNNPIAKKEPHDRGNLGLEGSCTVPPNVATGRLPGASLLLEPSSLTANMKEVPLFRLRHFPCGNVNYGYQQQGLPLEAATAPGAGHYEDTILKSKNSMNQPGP

Structure (SMILES): CCOc1cc(C2CCN(C)CC2)ccc1Nc1ncc2c(n1)N(Cc1cc(C)cs1)[C@H](CC)C(=O)N2C [16k, (R)-2-((2-Ethoxy-4-(1-methylpiperidin-4-yl)phenyl)amino)-7-ethyl-5-methyl-8-((4-methylthiophen-2-yl)methyl)-7,8-dihydropteridin-6(5H)-one]
- IC50 (ALK WT): 60 ± 12 nM
- concentration up to which no increase in mitotic markers and PLK-1 phosphorylation sites (HeLa cells; HeLa cells, Western blot): > 10 µM
- selectivity window for ALK^F1174L over PLK-1 in cells (HeLa cells; based on the cellular data): 10–20 fold
- expected cellular PLK-1 potency after similar drop-off (HeLa cells; extrapolated from BI-2536 drop-off): > 2500 nM
- remaining binding at 1 µM (AKT2): 100%
- remaining binding at 1 µM (BTK): 100%
- remaining binding at 1 µM (AURKA): 99%
- Thermal Shift (SMARCA2B): -0.35 K
- Thermal Shift (BRD3(2)): 5.9 K
- Thermal Shift (TAF1A(1)): -0.45 K
- Thermal Shift (EP300): -1 K
- Thermal Shift (TAF1LA(2)): -2.9 K
- Thermal Shift (BRD2(1)): -0.95 K
- Thermal Shift (SMARCA4A): -4.5 K
- Thermal Shift (BRPF1A): 0.8 K
- Thermal Shift (TRIM33B): -1.2 K
- Thermal Shift (PB1A(3)): 0.35 K
- Thermal Shift (PCAF): -1.65 K
- Thermal Shift (SMARCA2A): -2.4 K
- Thermal Shift (BRD4(2)): 4.4 K
- Thermal Shift (BRDT(2)): 0.6 K
- Thermal Shift (WDR9): -4.2 K
- Thermal Shift (BRD2(2)): 3.95 K
- Thermal Shift (PB1A(6)): -2.75 K
- Thermal Shift (BRD3(1)): 7.3 K
- Thermal Shift (PB1A(4)): -0.1 K
- Thermal Shift (BRD1): -0.15 K
- Thermal Shift (PB1A(1)): 1.95 K
- Thermal Shift (PB1A(5)): -0.7 K
- Thermal Shift (TAF1LA(1)): -3.4 K
- Thermal Shift (SP100): 0.05 K
- Thermal Shift (TAF1A(2)): -1.05 K
- Thermal Shift (BRDT(1)): 2.7 K
